From US5407918A, “16-membered macrolide derivatives and process for producing the same” (Meiji Seika Kaisha, Ltd., priority 1992, dated 1995)
≈ marks a conversion by molar mass, not a printed value. Entries after “also recorded” stand apart in the source; their conditions may differ.

Columns and labels:
[1] = tested on: some bacteria belonging to the genus Streptococcus or Branhamella; conditions: cited from earlier work
[2] = tested on: esterase; conditions: EP-A-560,147 derivatives; cited from earlier work
[3] = mice; EP-A-560,147; cited from earlier work
[4] = tested on: Mycoplasma; test: anti-Mycoplasma activity (summary in words); type: cell-based
Experimental: Antimicrobial activities of the compounds of the present invention were determined by measuring minimum inhibitory concentration (MIC). Minimum inhibitory concentration was determined by the agar plate dilution method in the following manner.
Test strains were subjected to seed culture using Sensitivity test broth (STB, Nissui Pharmaceutical) except that the strains belonging to the genus Streptococcus, Branhamella and Haemophilus were cultured on blood agar plate. A 5 μl portion of cell suspension of the test strains having about 10^6 CFU/ml was inoculated into Sensitivity disk agar (SDA, Nissui Pharmaceutical) supplemented with 5% horse blood and incubated at 37° C. for 20 hours. Then, MIC was measured. For comparison, MDM and leucomycin A7 (LM-A7) was also tested.

[5] = recovery in urine after oral administration to mice, bioassay; type: in vivo; conditions: for dose excreted at 24 h: mouse, 200 mg/kg oral (compound (3)), urine 4 and 24 hours
Experimental: Subsequently, 200 mg/kg of the compound (3) was orally administered to three mice in the same manner as described above.
The three mice were put in a metabolic cage MM type (Sugiyamagen Company, Tokyo, Japan) and urine was collected 4 and 24 hours after the administration of the test compound. The collected urine was filtered through a filter having a pore size of 0.45 μm (Millipore) and was mixed with an equivalent volume of 50% CH3CN-50 mM phosphate (1:1 by volume) buffer (pH 6.5) to serve as a urine sample. The bioassay was carried out in the same manner as described above to determine the concentration of the test compound in the urine sample. The recovering in the urine was calculated according to the following equation. [formula]

[6] = concentration in serum after oral administration to mice, bioassay; type: in vivo, mice (Jcl:ICR); conditions: for Cmax: mouse, serum, 200 mg/kg, M. luteus bioassay, read-out: maximum concentration in the serum
In short: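 Male 4-week-old Jcl:ICR mice dosed orally with compound suspended in 0.2% CMC (4 mg/ml, 1 ml; another compound at 200 mg/kg). Serum sampled 30-360 min (n=2), diluted 1:1 in CH3CN-phosphate pH 7.0; concentration measured by M. luteus ATCC9341 agar-well bioassay (32 °C, 18 h) against a calibration curve.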

[7] = tested on: K. pneumoniae PC1602; test: MIC, agar plate dilution method; type: cell-based; conditions: Klebsiella pneumoniae, 37° C., 20 hours, read-out: Antimicrobial activity (MIC)
In short: (§1)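 Agar plate dilution on Sensitivity disk agar with 5% horse blood; 5 μl inoculum of about 10^6 CFU/ml, Branhamella precultured on blood agar. MIC read after 20 hours at 37° C.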

[8] = tested on: E. coli NIHJ JC-2; test: MIC, agar plate dilution method; type: cell-based; conditions: Escherichia coli, NIHJJC2, 20 h, read-out: Antimicrobial activity (MIC)
In short: as §1

[9] = tested on: S. epidermidis ATCC14990; test: MIC, agar plate dilution method; type: cell-based; conditions: Staphylococcus epidermidis, 37° C., 20 hours, read-out: Antimicrobial activity (MIC)
In short: as §1

[10] = tested on: S. pneumoniae IP692; test: MIC, agar plate dilution method; type: cell-based; conditions: Streptococcus pneumoniae; S. pneumoniae IP692; 37° C., 20 hours; read-out: Antimicrobial activity (MIC)
In short: as §1

[11] = tested on: S. Pneumoniae Type 1; test: MIC, agar plate dilution method; type: cell-based; conditions: Streptococcus pneumoniae; S. Pneumoniae Type 1; 37° C., 20 hours; read-out: Antimicrobial activity (MIC)
In short: as §1

[12] = tested on: S. aureus MS15009/pMS99; test: MIC, agar plate dilution method; type: cell-based; conditions: Staphylococcus aureus, MS15009/PMS99, 20 h, read-out: Antimicrobial activity (MIC)
In short: as §1

[13] = tested on: S. aureus MS15009/pMS98; test: MIC, agar plate dilution method; type: cell-based; conditions: Staphylococcus aureus, MS15009/PMS98, 20 h, read-out: Antimicrobial activity (MIC)
In short: as §1

[14] = tested on: S. aureus M133; test: MIC, agar plate dilution method; type: cell-based; conditions: Staphylococcus aureus, 37° C., 20 hours, read-out: Antimicrobial activity (MIC)
In short: as §1

[15] = tested on: S. aureus M126; test: MIC, agar plate dilution method; type: cell-based; conditions: Staphylococcus aureus; S. aureus M126; 37° C., 20 hours; read-out: Antimicrobial activity (MIC)
In short: as §1

[16] = tested on: B. catarrhalis W-0506; test: MIC, agar plate dilution method; type: cell-based; conditions: Moraxella catarrhalis, W0506, 37° C., 20 hours, read-out: Antimicrobial activity (MIC)
In short: as §1

[17] = tested on: S. aureus MS15026; test: MIC, agar plate dilution method; type: cell-based; conditions: Staphylococcus aureus, 37° C., 20 hours, read-out: Antimicrobial activity (MIC)
In short: as §1

[18] = tested on: M. pneumoniae FH-P24; test: MIC, agar plate dilution method; type: cell-based; conditions: Mycoplasmoides pneumoniae, FHP24, 20 h, read-out: Antimicrobial activity (MIC)
In short: as §1

[19] = tested on: M. pneumoniae Mac; test: MIC, agar plate dilution method; type: cell-based; conditions: Mycoplasmoides pneumoniae, 20 h, read-out: Antimicrobial activity (MIC)
In short: as §1

[20] = tested on: M. pneumoniae Numata; test: MIC, agar plate dilution method; type: cell-based; conditions: Mycoplasmoides pneumoniae, 20 h, read-out: Antimicrobial activity (MIC)
In short: as §1

[21] = tested on: M. luteus ATCC9341; test: MIC, agar plate dilution method; type: cell-based; conditions: Micrococcus luteus; M. luteus ATCC9341; 37° C., 20 hours; read-out: Antimicrobial activity (MIC)
In short: as §1

[22] = tested on: E. faecalis W-73; test: MIC, agar plate dilution method; type: cell-based; conditions: Enterococcus faecalis, W73; E. faecalis W-73; 37° C., 20 hours; read-out: Antimicrobial activity (MIC)
In short: as §1

[23] = tested on: B. catarrhalis W-0500; test: MIC, agar plate dilution method; type: cell-based; conditions: Moraxella catarrhalis, W0500, 37° C., 20 hours, read-out: Antimicrobial activity (MIC)
In short: as §1

[24] = tested on: S. aureus MS15027; test: MIC, agar plate dilution method; type: cell-based; conditions: Staphylococcus aureus, 37° C., 20 hours, read-out: Antimicrobial activity (MIC)
In short: as §1

[25] = tested on: H. influenzae 9334; test: MIC, agar plate dilution method; type: cell-based; conditions: Haemophilus influenzae; H. influenzae 9334; 37° C., 20 hours; read-out: Antimicrobial activity (MIC)
In short: as §1

[26] = tested on: S. aureus 209P JC-1; test: MIC, agar plate dilution method; type: cell-based; conditions: Staphylococcus aureus; S. aureus 209P JC-1; 37° C., 20 hours; read-out: Antimicrobial activity (MIC)
In short: as §1

[27] = tested on: M. pneumoniae FH; test: MIC, agar plate dilution method; type: cell-based; conditions: Mycoplasmoides pneumoniae, 20 h, read-out: Antimicrobial activity (MIC)
In short: as §1

[28] = tested on: S. Pyogenes Cook; test: MIC, agar plate dilution method; type: cell-based; conditions: Streptococcus pyogenes, 37° C., 20 hours, read-out: Antimicrobial activity (MIC)
In short: as §1

[29] = tested on: Gram-positive bacteria and Mycoplasma; test: antimicrobial activity in vitro (summary in words); type: cell-based; conditions: from Table 1
In short: as §1

[30] = metabolism in plasma; type: in vitro ADME, rat; conditions: no free hydroxyl group in the neutral sugar moiety formed
Experimental: Each test compound and 50 μl of a methanol solution (10,000 γ) were added to 950 μl of thawed rat plasma and the resulting mixture was incubated at 37° C. for 24 hours. After completion of the incubation, a 20 μl portion of the mixture was added to 980 μl of 0.05M phosphate buffer (pH 7.6). A 20 μl portion of the sample solution was used to measure antimicrobial activity against M. luteus. Separately, the calibration curve was prepared by using a methanol solution containing each test compound. The starting activity of each compound in the plasma was referred to as 100%.

[31] = tested on: M. luteus
Experimental: Each test compound and 50 μl of a methanol solution (10,000 γ) were added to 950 μl of thawed rat plasma and the resulting mixture was incubated at 37° C. for 24 hours. After completion of the incubation, a 20 μl portion of the mixture was added to 980 μl of 0.05M phosphate buffer (pH 7.6). A 20 μl portion of the sample solution was used to measure antimicrobial activity against M. luteus.

[32] = Yakugaku Zasshi, 102 (8), 781 (1982); cited from earlier work
[33] = tested on: esterase; conditions: in vivo; cited from earlier work
[34] = oral, man and dog; cited from earlier work
[35] = Journal of Antibiotics, 36 (4), 442 (1983); cited from earlier work

SMILES: CCC(=O)O[C@@H]1CC(=O)O[C@H](C)C/C=C/C=C/C(=O)[C@H](C)C[C@H](CC=O)[C@H](O[C@@H]2O[C@H](C)[C@@H](O[C@H]3C[C@@](C)(OC)[C@@H](OCCC(C)C)[C@H](C)O3)[C@H](N(C)C)[C@H]2O)[C@H]1OC [4"-O-depropionyl-4"-O-isoamyl-3"-O-methylmidecamycin A3]
- antimicrobial activity compared with MOM [1]: enhanced antimicrobial activity
- attack of the mycarose moiety by esterase [2]: scarcely attacked by esterase
- maximum concentration in serum compared with marketed 16-membered macrolide antibiotics [3]: clearly improved
- recovery in urine compared with marketed 16-membered macrolide antibiotics [3]: clearly improved

SMILES: CCC(=O)O[C@@H]1CC(=O)O[C@H](C)C/C=C/C=C/[C@H](O)[C@H](C)C[C@H](CC=O)[C@H](O[C@@H]2O[C@H](C)[C@@H](O[C@H]3C[C@@](C)(OC)[C@@H](OCCC(C)C)[C@H](C)O3)[C@H](N(C)C)[C@H]2O)[C@H]1OC [(3), 4"-O-depropionyl-4"-O-isoamyl-3"-O-methylmidecamycin A1]
- anti-Mycoplasma activity [4]: practically effective anti-Mycoplasma activity
- stability in the living mouse body (sustaining the antimicrobial activity) [5]: highly stable
- recovery in the urine compared with CAM ([5]; 200 mg/kg oral): slightly lower than that of CAM
- dose excreted at 24 h [5]: 20%
- pharmacokinetics in mice (in words) [6]: excellent pharmacokinetics
- Cmax [6]: 11300 ng/mL
- maximum concentration in the serum, comparison in words ([6]; versus clarythromycin (CAM) or other 16-membered macrolides): comparable to that of clarythromycin (CAM); also recorded: considered the highest one among 16-membered macrolide compounds having a free hydroxyl group at the 9-position
- MIC [7]: > 100 µg/mL
- MIC [8]: > 100 µg/mL
- MIC [9]: 1.56 µg/mL (≈ 1.85 µM)
- MIC [10]: 0.1 µg/mL (≈ 0.119 µM)
- MIC [11]: 0.2 µg/mL (≈ 0.238 µM)
- MIC [12]: > 100 µg/mL
- MIC [13]: 0.78 µg/mL (≈ 0.926 µM)
- MIC [14]: 0.78 µg/mL (≈ 0.926 µM)
- MIC [15]: > 100 µg/mL
- MIC [16]: 1.56 µg/mL (≈ 1.85 µM)
- MIC [17]: > 100 µg/mL
- MIC [18]: 0.025 µg/mL (≈ 0.0297 µM)
- MIC [19]: 0.05 µg/mL (≈ 0.0594 µM)
- MIC [20]: 0.025 µg/mL (≈ 0.0297 µM)
- MIC [21]: 0.05 µg/mL (≈ 0.0594 µM)
- MIC [22]: 3.13 µg/mL (≈ 3.72 µM)
- MIC [23]: 0.78 µg/mL (≈ 0.926 µM)
- MIC [24]: 0.78 µg/mL (≈ 0.926 µM)
- MIC [25]: 6.25 µg/mL (≈ 7.42 µM)
- MIC [26]: 0.2 µg/mL (≈ 0.238 µM)
- MIC [27]: 1.56 µg/mL (≈ 1.85 µM)
- MIC [28]: 0.1 µg/mL (≈ 0.119 µM)
- antimicrobial activities compared with MDM [29]: comparable to, or even exceeding, that of MDM
- antimicrobial activities on Gram-positive bacteria and Mycoplasma [29]: strong antimicrobial activities
- extent of metabolism [30]: hardly metabolized
- degree of loss of the antimicrobial activity in the plasma compared with MOM [31]: lower than that of MOM

SMILES: CCC(=O)O[C@@H]1CC(=O)O[C@H](C)C/C=C/C=C/[C@H](OC(C)=O)[C@H](C)C[C@H](CC=O)[C@H](O[C@@H]2O[C@H](C)[C@@H](O[C@H]3C[C@@](C)(OC(C)=O)[C@@H](OC(=O)CC)[C@H](C)O3)[C@H](N(C)C)[C@H]2O)[C@H]1OC [MOM, miokamycin, reference compound]
- dose excreted at 24 h [5]: < 2%
- Cmax [6]: 6200 ng/mL
- metabolic pattern of the mycarose moiety in human compared with rat [32]: almost the same as that in rat
- metabolism of the two acyl groups in the neutral sugar moiety [33]: removed with esterase in vivo

SMILES: CCCC(=O)O[C@H]1[C@H](C)O[C@@H](O[C@H]2[C@H](N(C)C)[C@@H](O)[C@H](O[C@H]3[C@@H](CC=O)C[C@@H](C)[C@@H](O)/C=C/C=C/C[C@@H](C)OC(=O)C[C@@H](O)[C@@H]3OC)O[C@@H]2C)C[C@@]1(C)OC(=O)CC [RKM, rokitamycin, reference compound]
- dose excreted at 24 h [5]: < 2%
- Cmax [6]: 2900 ng/mL
- major metabolite with a cleaved lactone ring [34]: no compound with a cleaved lactone ring has been reported as a major metabolite
- metabolism of the two acyl groups in the neutral sugar moiety [33]: removed with esterase in vivo

SMILES: CO[C@@H]1[C@@H](O[C@@H]2O[C@H](C)[C@@H](O[C@H]3C[C@@](C)(O)[C@@H](O)[C@H](C)O3)[C@H](N(C)C)[C@H]2O)[C@@H](CC=O)C[C@@H](C)[C@@H](O[C@H]2CC[C@H](N(C)C)[C@@H](C)O2)/C=C/C=C/C[C@@H](C)OC(=O)C[C@H]1OC(C)=O [spiramycin II]
- sustained antimicrobial activity in rat plasma compared with spiramycin I [35]: shows a sustained antimicrobial activity in rat plasma
